Results: PubChem BioAssay (NCI)
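Following 48 hours of exposure in 96-well plates, responses at five concentrations were used to interpolate endpoints linearly. TGI marks complete inhibition of growth.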

What was measured:
Assay in all cases: inhibition of tumour cell growth, NCI panel, 48 h
MDA-MB-435 = system: MDA-MB-435
OVCAR-8 ovarian = system: OVCAR-8 ovarian
M14 melanoma = system: M14 melanoma
ACHN renal = system: ACHN renal
HS 578T breast = system: HS 578T breast
CCRF-CEM leukemia = system: CCRF-CEM leukemia
SK-MEL-28 melanoma = system: SK-MEL-28 melanoma
SF-295 CNS = system: SF-295 CNS
LOX IMVI melanoma = system: LOX IMVI melanoma
HOP-62 NSCLC = system: HOP-62 NSCLC
IGROV1 ovarian = system: IGROV1 ovarian
HCT-15 colon = system: HCT-15 colon
SK-OV-3 ovarian = system: SK-OV-3 ovarian
HT29 colon = system: HT29 colon
DU-145 prostate = system: DU-145 prostate
NCI/ADR-RES ovarian = system: NCI/ADR-RES ovarian
NCI-H23 lung = system: NCI-H23 lung
MCF7 breast = system: MCF7 breast
MOLT-4 leukemia = system: MOLT-4 leukemia
HCT-116 colon = system: HCT-116 colon

Structure (SMILES)	TGI (MDA-MB-435) [µM]	TGI (OVCAR-8 ovarian) [µM]	TGI (M14 melanoma) [µM]	TGI (ACHN renal) [µM]	TGI (HS 578T breast) [µM]	TGI (CCRF-CEM leukemia) [µM]	TGI (SK-MEL-28 melanoma) [µM]	TGI (SF-295 CNS) [µM]	TGI (LOX IMVI melanoma) [µM]	TGI (HOP-62 NSCLC) [µM]	TGI (IGROV1 ovarian) [µM]	TGI (HCT-15 colon) [µM]	TGI (SK-OV-3 ovarian) [µM]	TGI (HT29 colon) [µM]	TGI (DU-145 prostate) [µM]	TGI (NCI/ADR-RES ovarian) [µM]	TGI (NCI-H23 lung) [µM]	TGI (MCF7 breast) [µM]	TGI (MOLT-4 leukemia) [µM]	TGI (HCT-116 colon) [µM]
CCOC(=O)/C(=C/c1cn(C(C)=O)c2ccccc12)P(=O)(OC)OC	> 100	> 100	> 100	> 100	> 100	68.1	> 100	> 100	79.2	> 100	> 100	> 100	> 100	> 100	> 100	> 100	> 100	> 100	74.6	> 100
Nc1c(-c2ccccc2)c2ccc([N+](=O)[O-])cc2c(=O)n1-c1cccc(C(=O)O)c1	> 100	> 100	> 100	> 100	> 100	> 100	> 100	> 100	> 100	> 100	> 100	> 100	> 100	> 100	> 100	> 100	> 100	> 100	> 100	> 100
CCN(CCCl)c1cc(CN(C)C)cc(NC(=O)c2ccc(C(=O)Nc3cccc(N(CCCl)NN)c3)cc2)c1	0.0389	0.942	0.294	0.233	0.0711	0.115	0.505	12.5	0.034	10.7	0.078	4.89	13.3	0.0409	8.66	12.7	0.626	0.171	0.0285	10.1
